In BindingDB's records for doi:10.1021/jm9800447 (The George Washington University Medical Center, 1998):

molecular target: Sigma non-opioid intracellular receptor 1 (Cavia porcellus) (UniProt Q60492); assay: Inhibition of [3H](+)-pentazocine binding to sigma-1 receptor in guinea pig brain membranes
Sequence (Q60492 whole entry, looked up): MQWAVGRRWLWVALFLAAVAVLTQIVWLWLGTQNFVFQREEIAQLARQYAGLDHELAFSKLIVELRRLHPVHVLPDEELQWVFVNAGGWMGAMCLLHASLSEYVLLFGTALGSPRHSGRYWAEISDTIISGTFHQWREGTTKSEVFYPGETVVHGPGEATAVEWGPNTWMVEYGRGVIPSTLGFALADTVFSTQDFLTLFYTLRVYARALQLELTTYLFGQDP

Compound	Ki [nM]
CN(CCN1CCCCCC1)S(=O)(=O)c1ccc(Br)cc1 [N-(2-Azepan-1-yl-ethyl)-4-bromo-N-methyl-benzenesulfonamide]	0.18
COc1ccc(S(=O)(=O)N(C)CCN2CCCCCC2)cc1I [N-(2-Azepan-1-yl-ethyl)-3-iodo-4-methoxy-N-methyl-benzenesulfonamide]	3.11
CN(CCN1CCCCCC1)S(=O)(=O)c1ccc(I)cc1 [N-(2-Azepan-1-yl-ethyl)-4-iodo-N-methyl-benzenesulfonamide]	0.14
CCN(CC)CCNS(=O)(=O)c1ccc(Br)cc1 [4-Bromo-N-(2-diethylamino-ethyl)-benzenesulfonamide]	10.1
O=S(=O)(NCCN1CCCC1)c1ccc(Br)cc1 [4-Bromo-N-(2-pyrrolidin-1-yl-ethyl)-benzenesulfonamide]	6.65
COc1ccc(S(=O)(=O)NCCN2CCCCC2)cc1I [3-Iodo-4-methoxy-N-(2-piperidin-1-yl-ethyl)-benzenesulfonamide]	41.8
CCN(CC)CCNS(=O)(=O)c1ccc(I)cc1 [N-(2-Diethylamino-ethyl)-4-iodo-benzenesulfonamide]	4.97

The remaining lines, values ahead:

Ki [nM]	Compound
1.54	O=S(=O)(NCCN1CCCCC1)c1ccc(Br)cc1 [4-Bromo-N-(2-piperidin-1-yl-ethyl)-benzenesulfonamide]
1.32	O=S(=O)(NCCN1CCCCCC1)c1ccc(I)cc1 [N-(2-Azepan-1-yl-ethyl)-4-iodo-benzenesulfonamide]
4.3	O=S(=O)(NCCN1CCCC1)c1ccc(I)cc1 [4-Iodo-N-(2-pyrrolidin-1-yl-ethyl)-benzenesulfonamide]
0.63	O=S(=O)(NCCN1CCCCCC1)c1ccc(Br)cc1 [N-(2-Azepan-1-yl-ethyl)-4-bromo-benzenesulfonamide]
0.46	O=S(=O)(NCCN1CCCCC1)c1ccc(I)cc1 [4-Iodo-N-(2-piperidin-1-yl-ethyl)-benzenesulfonamide]
